Measured values published in patent US8642013B2, “Nano-scale contrast agents and methods of use” (priority 2008, dated 2014).

Test: blood concentration and clearance after injection in tumor-bearing rats
Assay type: in vivo, Fischer female rats
Details: high iodine dose (1,344 mgl/mL)
Method: Contrast-enhanced mammography was performed with a commercial digital mammography system (Senographe 2000D, GE Healthcare) at 49 kVp and 63 mAs with a rhodium target and an extra copper filter of 0.3 mm thickness. These settings were used to shape the x-rays to have optimal energies for iodine. […] Initial studies were performed with high doses of the nano-probe to obtain a vascular image. A pre-contrast image (FIG. 2(a)) and post-contrast images were acquired 1, 5, 10, and 15 minutes after tail vein injection of the nano-probe. […] In the case of an adult human, this would correspond to a dose of about 654 mL of the nano-probe (assuming a blood volume of five liters), which is prohibitively large for use in humans. However, this high dose was used to clearly visualize the blood vessels that the mammography system was capable of detecting.
Another control group was injected with a conventional iodinated agent (iohexol) at an iodine dose equivalent to the high dose of 1,344 mgl/mL of the nano-probe. (See FIG. 7). […] (See FIG. 8).

- clearance: rapidly cleared via the kidneys
Compound: CC(=O)N(CC(O)CO)c1c(I)c(C(=O)NCC(O)CO)c(I)c(C(=O)NCC(O)CO)c1I (stereo not shown) [iohexol]
